Measured values taken from patent US20050037946A1, “Methods and compositions for treating cardiovascular disease using 1722, 10280, 59917, 85553, 10653, 9235, 21668, 17794, 2210, 6169, 10102, 21061, 17662, 1468, 12282, 6350, 9035, 1820, 23652, 7301, 8925, 8701, 3533, 9462, 9123, 12788, 17729, 65552, 1261, 21476, 33770, 9380, 2569654, 33556, 53656, …” (Millennium Pharmaceuticals, Inc., priority 2003, published 2005).

Assays:
[1] = humans; cited from earlier work
[2] = tested on: RAW 264.7; details: RAW 264.7, through down-regulating the activation of Akt; cited from earlier work
[3] = tested on: isolated rat arterioles; details: compared to basal tone; cited from earlier work
[4] = tested on: glycine cleavage system; details: cited from earlier work
[5] = tested on: 13886 mRNA; test: 13886 mRNA in aortas of treated rats (TaqMan); assay type: in vivo; details: seven days, vs vehicle treated controls, p<0.005 ANOVA
Text: (§1) This example describes the TaqMan™ procedure. The Taqman™ procedure is a quantitative, reverse transcription PCR-based approach for detecting mRNA. The RT-PCR reaction exploits the 5′ nuclease activity of AmpliTaq Gold™ DNA Polymerase to cleave a TaqMan™ probe during PCR. Briefly, cDNA was generated from the samples of interest, e.g., heart, kidney, liver, skeletal muscle, and various vessels, and used as the starting material for PCR amplification. In addition to the 5′ and 3′ gene-specific primers, a gene-specific oligonucleotide probe (complementary to the region being amplified) was included in the reaction (i.e., the Taqman™ probe). […]
(§2) During the PCR reaction, cleavage of the probe separates the reporter dye and the quencher dye, resulting in increased fluorescence of the reporter. Accumulation of PCR products is detected directly by monitoring the increase in fluorescence of the reporter dye. When the probe is intact, the proximity of the reporter dye to the quencher dye results in suppression of the reporter fluorescence. […]

[6] = tested on: 6169 mRNA; test: 6169 mRNA in human primary hepatocytes (TaqMan); assay type: cell-based
Text: as §1, §2

[7] = tested on: 32345 mRNA; test: 32345 mRNA in HUVECs (TaqMan); assay type: cell-based, human
Text: as §1, §2

[8] = biological target: 1722 (Protein Kinase C mu or PKD) (Homo sapiens, UniProt Q15139); details: Biochem Pharmacol. 2001; cited from earlier work
Chain of 1722 (Protein Kinase C mu or PKD) (Q15139 whole entry): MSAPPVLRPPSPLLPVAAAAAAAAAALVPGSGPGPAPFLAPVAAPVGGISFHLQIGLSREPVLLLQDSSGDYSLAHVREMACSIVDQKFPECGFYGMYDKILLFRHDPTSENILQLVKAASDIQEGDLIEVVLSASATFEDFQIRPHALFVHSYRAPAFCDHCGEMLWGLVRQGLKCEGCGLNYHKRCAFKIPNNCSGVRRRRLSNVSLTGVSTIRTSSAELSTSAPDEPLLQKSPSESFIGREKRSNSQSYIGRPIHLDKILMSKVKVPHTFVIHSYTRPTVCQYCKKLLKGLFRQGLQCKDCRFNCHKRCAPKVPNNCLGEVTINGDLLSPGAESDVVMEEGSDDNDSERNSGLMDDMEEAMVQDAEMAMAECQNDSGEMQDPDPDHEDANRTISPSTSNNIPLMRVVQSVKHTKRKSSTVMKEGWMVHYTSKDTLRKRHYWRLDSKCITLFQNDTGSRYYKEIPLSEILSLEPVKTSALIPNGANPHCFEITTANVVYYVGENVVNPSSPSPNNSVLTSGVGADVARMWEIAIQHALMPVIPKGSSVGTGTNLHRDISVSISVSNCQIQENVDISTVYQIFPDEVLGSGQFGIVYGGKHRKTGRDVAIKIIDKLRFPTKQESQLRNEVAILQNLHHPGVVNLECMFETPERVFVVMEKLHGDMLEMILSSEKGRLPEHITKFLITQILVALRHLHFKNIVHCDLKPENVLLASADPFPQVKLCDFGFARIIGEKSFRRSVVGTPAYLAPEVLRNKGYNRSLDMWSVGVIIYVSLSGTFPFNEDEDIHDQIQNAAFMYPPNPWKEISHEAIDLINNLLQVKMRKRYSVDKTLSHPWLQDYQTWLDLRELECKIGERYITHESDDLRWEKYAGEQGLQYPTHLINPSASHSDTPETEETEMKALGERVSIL

[9] = tested on: 2569654 mRNA; test: 2569654 mRNA in marmoset models (TaqMan); assay type: in vivo
Text: (§3) This example describes the TaqMan™ procedure. The Taqman™ procedure is a quantitative, reverse transcription PCR-based approach for detecting mRNA. The RT-PCR reaction exploits the 5′ nuclease activity of AmpliTaq Gold™ DNA Polymerase to cleave a TaqMan™ probe during PCR. Briefly, cDNA was generated from the samples of interest, e.g., heart, kidney, liver, skeletal muscle, and various vessels, and used as the starting material for PCR amplification. In addition to the 5′ and 3′ gene-specific primers, a gene-specific oligonucleotide probe (complementary to the region being amplified) was included in the reaction (i.e., the Taqman™ probe). The TaqMan™ probe includes the oligonucleotide with a fluorescent reporter dye covalently linked to the 5′ end of the probe (such as FAM (6-carboxyfluorescein), TET (6-carboxy4,7,2′,7′-tetrachlorofluorescein), JOE (6-carboxy-4,5-dichloro-2,7-dimethoxyfluorescein), or VIC) and a quencher dye (TAMRA (6-carboxy-N,N,N′,N′-tetramethylrhodamine) at the 3′ end of the probe.
(§4) During the PCR reaction, cleavage of the probe separates the reporter dye and the quencher dye, resulting in increased fluorescence of the reporter. Accumulation of PCR products is detected directly by monitoring the increase in fluorescence of the reporter dye. When the probe is intact, the proximity of the reporter dye to the quencher dye results in suppression of the reporter fluorescence. During PCR, if the target of interest is present, the probe specifically anneals between the forward and reverse primer sites. The 5′-3′ nucleolytic activity of the AmpliTaq™ Gold DNA Polymerase cleaves the probe between the reporter and the quencher only if the probe hybridizes to the target. The probe fragments are then displaced from the target, and polymerization of the strand continues. The 3′ end of the probe is blocked to prevent extension of the probe during PCR. […] RNA was prepared using the trizol method and treated with DNase to remove contaminating genomic DNA. cDNA was synthesized using standard techniques.

[10] = tested on: 3533 mRNA; test: 3533 mRNA regulation by lipid lowering drugs (TaqMan)
Text: as §3, §4

[11] = humans, betaine supplemented diets vs control group; cited from earlier work
[12] = tested on: 1510 mRNA; test: 1510 mRNA in aortic arches of ApoE knockout mice (TaqMan); assay type: in vivo; details: relative to abdominal aorta, 12 weeks
Text: as §1, §2

[13] = tested on: 966 mRNA; test: 966 mRNA in aortic arches of mice given captopril (TaqMan); assay type: in vivo; details: given for 6 or 12 weeks
Text: as §1, §2

Compound: CC1=C(/C=C/C(C)=C\C=C\C(C)=C\C(=O)O)C(C)(C)CCC1 [9-cis retinoic acid]
- lipid profile [1]: increase total cholesterol, ILDL-cholesterol, apoB and triglyceride levels and decrease HDL-cholesterol

Compound: CC1=C(/C=C/C(C)=C/C=C/C(C)=C\C(=O)O)C(C)(C)CCC1 [13-cis retinoic acid]
- lipid profile [1]: increase total cholesterol, ILDL-cholesterol, apoB and triglyceride levels and decrease HDL-cholesterol

Compound: CCCCCCCCCCCCC/C=C/[C@@H](O)[C@H](CO)NC(C)=O [C(2)-ceramide]
- LPS-induced NO production [2]: inhibit

Compound: COc1cc2c(c(OC)c1OC)-c1ccc(OC)c(=O)cc1[C@@H](NC(C)=O)CC2 [Colchicine]
- vasoconstriction [3]: 33.9%

Compound: NCCS [Cysteamine]
- inhibition of the glycine cleavage system [4]: potent inhibitor

Compound: COC(=O)[C@@H](N)CCCNC(=N)N[N+](=O)[O-] [L-NAME]
- expression of 13886 mRNA [5]: significantly down-regulated

Compound: CC[C@H](C)C(=O)O[C@H]1CCC=C2C=C[C@H](C)[C@H](CC[C@@H]3C[C@@H](O)CC(=O)O3)[C@H]21 [Mevastatin]
- 6169 mRNA upregulated [6]: 2.4 fold
- 32345 mRNA expression [7]: upregulated

Compound: Oc1ccc(C=Cc2cc(O)cc(O)c2)cc1 [Resveratrol]
- autophosphorylation of 1722 [8]: inhibit

Compound: N[C@@H](Cc1cc(I)c(Oc2ccc(O)c(I)c2)c(I)c1)C(=O)O [T3]
- 2569654 mRNA expression [9]: upregulated
- 3533 mRNA expression [10]: downregulated

Compound: C[N+](C)(C)CC(=O)[O-] [betaine, trimethylglycine]
- plasma homocysteine concentration [11]: decrease
- total and LDL cholesterol concentration [11]: small but significant increase

Compound: C[C@H](CS)C(=O)N1CCC[C@H]1C(=O)O [captopril]
- elevated expression of 1510 mRNA in aortic arches of ApoE knockout mice [12]: blocked
- upregulation of 966 mRNA in mice aortic arches [13]: inhibited
